In US12545685B2 (Daiichi Sankyo Company, Limited, priority 2011, dated 2026):

What follows are compounds tested against T1, Mdm2/p53 binding (GST-Mdm2 / His-p53) (Homo sapiens, UniProt Q00987, L33E) (assay: Mdm2/p53 binding assay (HTRF, His-p53 and GST-Mdm2)). Conditions: His-p53 (aa 1-132) and GST-Mdm2 (aa 25-108, L33E) 6.25 nM each; 25°C, 1 hour; values given as ranges.
T1 construct: Mdm2 partial protein having Mdm2 amino acids at positions 25 to 108
Outline: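 Binding was detected by HTRF (ex 320 nm, em 620/665 nm) after 1 h at 25 °C, using Eu-cryptate anti-GST and XL665 anti-His antibodies. The protein pair was GST-Mdm2 (residues 25–108, L33E) with His-p53 (residues 1–132), each 6.25 nM in the protein dilution. T/C used no-compound control and no-p53 background, and IC50 came from sigmoid fitting.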

T1 sequence (Q00987 25-108 L33E): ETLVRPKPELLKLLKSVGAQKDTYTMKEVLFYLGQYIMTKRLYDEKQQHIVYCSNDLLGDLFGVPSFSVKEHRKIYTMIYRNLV

**Q.** How did the IC50 turn out when `COC[C@@H]1CC[C@@H](NC(=O)[C@@H]2NC3(CC(CF)(CF)C3)[C@@]3(C(=O)Nc4cc(Cl)ccc43)[C@H]2c2cccc(Cl)c2F)CO1` [Example 143, (3′R, 4′S,5′R)-6″-chloro-A′-(3-chloro-2-fluorophenyl)-3,3-bis(fluoromethyl)-N-[(3R,6S)-6-(methoxymethyl)tetrahydro-2H-pyran-3-yl]-2″-oxo-1″,2″-dihydrodispiro[cyclobutane-1,2′-pyrrolidine-3′,3″-indole]-5′-carboxamide] was run?
**A.** The IC50 was 50 to 100 nM.

**Q.** How did the IC50 turn out when `CN(C)C(=O)[C@H]1C[C@H](NC(=O)[C@@H]2NC3(CC(CF)(CF)C3)[C@@]3(C(=O)Nc4cc(Cl)ccc43)[C@H]2c2cccc(Cl)c2F)C1` [Example 145, (3′R, 4′S,5′R)-6″-chloro-4′-(3-chloro-2-fluorophenyl)-N-[trans-3-(dimethylcarbamoyl)cyclobutyl]-3,3-bis(fluoromethyl)-2″-oxo-1″,2″-dihydrodispiro[cyclobutane-1,2′-pyrrolidine-3′,3″-indole]-5′-carboxamide] was run?
**A.** The IC50 was 50 to 100 nM.

**Q.** How did the IC50 turn out when `CN(C)C(=O)[C@H]1CC[C@H](NC(=O)[C@@H]2NC3(CC(CF)(CF)C3)[C@@]3(C(=O)Nc4cc(Cl)ccc43)[C@H]2c2cccc(Cl)c2F)CC1` [Example 148, (3′R, 4′S,5′R)-6″-chloro-4′-(3-chloro-2-fluorophenyl)-N-[trans-4-(dimethylcarbamoyl)cyclohexyl]-3,3-bis(fluoromethyl)-2″-oxo-1″,2″-dihydrodispiro[cyclobutane-1,2′-pyrrolidine-3′,3″-indole]-5′-carboxamide] was run?
**A.** Its IC50 is 1 to 50 nM.

**Q.** With `NC(=O)C[C@@H]1CC[C@@H](NC(=O)[C@@H]2NC3(CC(CF)(CF)C3)[C@@]3(C(=O)Nc4cc(Cl)ccc43)[C@H]2c2cccc(Cl)c2F)CO1` [Example 149, (3′R, 4′S,5′R)—N-[(3R,6S)-6-(2-amino-2-oxoethyl)tetrahydro-2H-pyran-3-yl]-6″-chloro-4′-(3-chloro-2-fluorophenyl)-3,3-bis(fluoromethyl)-2″-oxo-1″,2″-dihydrodispiro[cyclobutane-1,2′-pyrrolidine-3′,3″-indole]-5′-carboxamide] as the compound, how does the IC50 read?
**A.** The IC50 was 50 to 100 nM.

**Q.** Which IC50 does the source give for `CNC(=O)C[C@@H]1CC[C@@H](NC(=O)[C@@H]2NC3(CCC(C)(C)CC3)[C@@]3(C(=O)Nc4cc(Cl)ccc43)[C@H]2c2ccnc(Cl)c2F)CO1` [Example 150, (3′R, 4′S,5′R)-6″-chloro-4′-(2-chloro-3-fluoropyridin-4-yl)-4,4-dimethyl-N-{(3R,6S)-6-[2-(methylamino)-2-oxoethyl]tetrahydro-2H-pyran-3-yl}-2″-oxo-1″,2″-dihydrodispiro[cyclohexane-1,2′-pyrrolidine-3′,3″-indole]-5′-carboxamide] here?
**A.** The IC50 was 1 to 50 nM.

**Q.** How did the IC50 turn out when `CNC(=O)C[C@@H]1CC[C@@H](NC(=O)[C@@H]2NC3(CC(CF)(CF)C3)[C@@]3(C(=O)Nc4cc(Cl)ccc43)[C@H]2c2cccc(Cl)c2F)CO1` [Example 151, (3′R, 4′S,5′R)-6″-chloro-4′-(3-chloro-2-fluorophenyl)-3,3-bis(fluoromethyl)-N-{(3R,6S)-6-[2-(methylamino)-2-oxoethyl]tetrahydro-2H-pyran-3-yl}=2″-oxo-1″,2″-dihydrodispiro[cyclobutane-1,2′-pyrrolidine-3′,3′-indole]-5′-carboxamide] was run?
**A.** The IC50 was 1 to 50 nM.

**Q.** For `CN(C)C(=O)C[C@@H]1CC[C@@H](NC(=O)[C@@H]2NC3(CCC(C)(C)CC3)[C@@]3(C(=O)Nc4cc(Cl)ccc43)[C@H]2c2ccnc(Cl)c2F)CO1` [Example 152, (3′R, 4′S,5′R)-6″-chloro-4′-(2-chloro-3-fluoropyridin-4-yl)-N-{(3R,6S)-6-[2-(dimethylamino)-2-oxoethyl]tetrahydro-2H-pyran-3-yl}-4,4-dimethyl-2″-oxo-1″,2″-dihydrodispiro[cyclohexane-1,2′-pyrrolidine-3′,3″-indole]-5′-carboxamide], which IC50 is on record?
**A.** Its IC50 is 1 to 50 nM.

**Q.** How did the IC50 turn out when `CN(C)C(=O)C[C@@H]1CC[C@@H](NC(=O)[C@@H]2NC3(CC(CF)(CF)C3)[C@@]3(C(=O)Nc4cc(Cl)ccc43)[C@H]2c2cccc(Cl)c2F)CO1` [Example 153, (3′R, 4′S,5′R)-6″-chloro-4′-(3-chloro-2-fluorophenyl)-N-{(3R,6S)-6-[2-(dimethylamino)-2-oxoethyl]tetrahydro-2H-pyran-3-yl}-3,3-bis(fluoromethyl)-2″-oxo-1″,2″-dihydrodispiro[cyclobutane-1,2′-pyrrolidine-3′,3′-indole]-5′-carboxamide] was run?
**A.** The IC50 was 1 to 50 nM.

**Q.** Which IC50 does the source give for `CC1(C)CCC2(CC1)N[C@@H](C(=O)N[C@H]1CC[C@H](c3nncs3)CC1)[C@H](c1ccnc(Cl)c1F)[C@]21C(=O)Nc2cc(Cl)ccc21` [Example 155, (3′R, 4′S,5′R)-6″-chloro-4′-(2-chloro-3-fluoropyridin-4-yl)-4,4-dimethyl-2″-oxo-N-[trans-4-(1,3,4-thiadiazol-2-yl)cyclohexyl]-1″,2″-dihydrodispiro[cyclohexane-1,2′-pyrrolidine-3′,3″-indole]-5′-carboxamide] here?
**A.** Its IC50 is 50 to 100 nM.

**Q.** With `NC(=O)[C@@H]1CC[C@@H](NC(=O)[C@@H]2NC3(CC(CF)(CF)C3)[C@@]3(C(=O)Nc4cc(Cl)ccc43)[C@H]2c2ccnc(Cl)c2F)CO1` [Example 158, (3′R, 4′S,5′R)—N-[(3R,6S)-6-carbamoyltetrahydro-2H-pyran-3-yl]-6″-chloro-4′-(2-chloro-3-fluoropyridin-4-yl)-3,3-bis(fluoromethyl)-2″-oxo-1″,2″-dihydrodispiro[cyclobutane-1,2′-pyrrolidine-3′,3″-indole]-5′-carboxamide] as the compound, how does the IC50 read?
**A.** The IC50 was 1 to 50 nM.

**Q.** For `COCc1nnc([C@H]2CC[C@H](NC(=O)[C@@H]3NC4(CCC(C)(C)CC4)[C@@]4(C(=O)Nc5cc(Cl)ccc54)[C@H]3c3ccnc(Cl)c3F)CC2)o1` [Example 159], which IC50 is on record?
**A.** Its IC50 is 50 to 100 nM.

**Q.** Which IC50 does the source give for `O=C(N[C@@H]1CC[C@@H](CO)OC1)[C@@H]1NC2(CC(CF)(CF)C2)[C@@]2(C(=O)Nc3cc(Cl)c(F)cc32)[C@H]1c1ccnc(Cl)c1F` [Example 163, (3′R, 4′S,5′R)-6″-chloro-4′-(2-chloro-3-fluoropyridin-4-yl)-5″-fluoro-3,3-bis(fluoromethyl)-N-[(3R,6S)-6-(hydroxymethyl)tetrahydro-2H-pyran-3-yl]-2″-oxo-1″,2″-dihydrodispiro[cyclobutane-1,2′-pyrrolidine-3′,3″-indole]-5′-carboxamide] here?
**A.** Its IC50 is 50 to 100 nM.

**Q.** `CC1(C)CCC2(CC1)N[C@@H](C(=O)N[C@@H]1CC[C@@H](CNS(C)(=O)=O)OC1)[C@H](c1ccnc(Cl)c1F)[C@]21C(=O)Nc2cc(Cl)ccc21` [Example 166, (3′R, 4′S,5′R)-6″-chloro-4′-(2-chloro-3-fluoropyridin-4-yl)-4,4-dimethyl-N-[(3R,6S)-6-{[(methylsulfonyl)amino]methyl}tetrahydro-2H-pyran-3-yl]-2″-oxo-1″,2″-dihydrodispiro[cyclohexane-1,2′-pyrrolidine-3′,3″-indole]-5′-carboxamide] was tested. Which IC50 did it give?
**A.** The IC50 was 50 to 100 nM.

**Q.** For `CN(C)C(=O)[C@@H]1CC[C@@H](NC(=O)[C@@H]2NC3(CC(CF)(CF)C3)[C@@]3(C(=O)Nc4cc(Cl)ccc43)[C@H]2c2ccnc(Cl)c2F)CO1` [Example 167, (3′R, 4′S,5′R)-6″-chloro-4′-(2-chloro-3-fluoropyridin-4-yl)-N-[(3R,6S)-6-(dimethylcarbamoyl)tetrahydro-2H-pyran-3-yl]-3,3-bis(fluoromethyl)-2″-oxo-1′″, 2′″-dihydrodispiro[cyclobutane-1,2′-pyrrolidine-3′,3″-indole]-5″-carboxamide], which IC50 is on record?
**A.** Its IC50 is 1 to 50 nM.

**Q.** Which IC50 does the source give for `O=C(N[C@@H]1CC[C@@H](CO)OC1)[C@@H]1NC2(CC(CF)(CF)C2)[C@@]2(C(=O)Nc3cc(Cl)ccc32)[C@H]1c1cc(Cl)cc(Cl)c1` [Example 169, (3′R, 4′R, 5′R)-6″-chloro-4′-(3,5-dichlorophenyl)-3,3-bis(fluoromethyl)-N-[(3R,6S)-6-(hydroxymethyl)tetrahydro-2H-pyran-3-yl]-2″-oxo-1″,2″-dihydrodispiro[cyclobutane-1,2′-pyrrolidine-3′,3″-indole]-5′-carboxamide] here?
**A.** The IC50 was 50 to 100 nM.

**Q.** For `C[C@@H](O)[C@@H]1CC[C@@H](NC(=O)[C@@H]2NC3(CC(CF)(CF)C3)[C@@]3(C(=O)Nc4cc(Cl)ccc43)[C@H]2c2ccnc(Cl)c2F)CO1` [Example 170, (3′R, 4′S,5′R)-6″-chloro-4′-(2-chloro-3-furopyridinyl-4-yl)-3,3-bis(fluoromethyl)-N-{(3R,6S)-6-[(1R)-1-hydroxyethyl]tetrahydro-2H-pyran-3-yl}-2″-oxo-1″,2″-dihydrodispiro[cyclobutane-1,2′-pyrrolidine-3′,3′-indole]-5′-carboxamide], which IC50 is on record?
**A.** The IC50 was 50 to 100 nM.

**Q.** With `Cn1cncc1CNC(=O)[C@@H]1NC2(CCC(C)(C)CC2)[C@@]2(C(=O)Nc3cc(Cl)ccc32)[C@H]1c1ccnc(Cl)c1F` [Example 171, (3′R, 4′S, S′R)-6″-chloro-4′-(2-chloro-3-fluoropyridin-4-yl)-4,4-dimethyl-N-[(1-methyl-1H-imidazol-5-yl)methyl]-2″-oxo-1″,2″-dihydrodispiro[cyclohexane-1,2″-pyrrolidine-3′,3″-indole]-5′-carboxamide] as the compound, how does the IC50 read?
**A.** Its IC50 is 50 to 100 nM.

**Q.** How did the IC50 turn out when `O=C(N[C@@H]1CC[C@@H](CO)OC1)[C@@H]1NC2(CC(CF)(CF)C2)[C@@]2(C(=O)Nc3cc(Cl)ccc32)[C@H]1c1ccc(F)c(Cl)c1F` [Example 172, (3′R,4′S,5′R)-6″-chloro-4′-(3-chloro-2,4-difluorophenyl)-3,3-bis(fluoromethyl)-N-[(3R,6S)-6-(hydroxymethyl)tetrahydro-2H-pyran-3-yl]-2′-oxo-1″,2″-dihydrodispiro[cyclobutane-1,2′-pyrrolidine-3′,3″-indole]-5′-carboxamide] was run?
**A.** The IC50 was 1 to 50 nM.

**Q.** `COC(=O)[C@@H]1CC[C@@H](NC(=O)[C@@H]2NC3(CCC(C)(C)CC3)[C@@]3(C(=O)Nc4cc(Cl)ccc43)[C@H]2c2ccnc(Cl)c2F)CO1` [Example 173, Methyl (2S,5R)-5-({[(3′S,4′S,5′R)-6″-chloro-4′-(2-chloro-3-fluoropyridin-4-yl)-4,4-dimethyl-2″-oxo-1″,2″-dihydrodispiro[cyclohexane-1,2′-pyrrolidine-3′,3′-indole]-5′-yl]carbonyl}amino)tetrahydro-2H-pyran-2-carboxylate] was tested. Which IC50 did it give?
**A.** The IC50 was 50 to 100 nM.
